Experimental data reported in US12098145B2 (Libra Therapeutics, Inc., priority 2022, dated 2024).
Read-outs that look alike come from different tables or passages of the source.

What was measured:
TFEB = TFEB translocation assay (TFEB reporter in U2OS cells, imaging); format: cell-based; details: Homo sapiens; U2OS cell line with TFEB reporter, 2 hours incubation, nucleus to cytoplasm ratio, normalized to Torin-1; read-out: TFEB Translocation pEC50 (converted)
Procedure, shortened: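 Activity expresses the mean nuclear-to-cytosolic reporter ratio scaled between DMSO (0%) and Torin-1 (100%) controls. Read-out came from high-content imaging of fixed, Hoechst-counterstained U2OS cells carrying mRFP-tagged TFEB after 2 h compound exposure at 37 °C in Opti-MEM with 0.015% Tween 80 and 0.5% DMSO.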

TRPML1 = molecular target: T1, TRPML1 (Homo sapiens, UniProt Q9GZU1); test: Cellular TRPML1 assay (FLIPR, GCaMP6f calcium read-out); format: cell-based
T1 construct: expressed in transfected cells; host or cells: HEK T-REx cells stably expressing GCaMP6f and TRPML1
Procedure, shortened: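 Read-out is GCaMP6f fluorescence over 300 s after compound addition in Ca2+-free Tyrode's buffer, final DMSO 0.5%, on FLIPR Tetra. Cells are HEK T-REx stably co-expressing the indicator and TRPML1, plated 24 h earlier in Optimem + 0.5% FBS and pre-incubated ~10 min at room temperature.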

[1] = HEKT-REx/GCaMP6f/TRPML1 cells, FLIPR TETRA, kinetic response over 300 seconds, read-out: TRPML1 FLIPR pEC50 (converted)

T1 sequence (Q9GZU1 whole entry): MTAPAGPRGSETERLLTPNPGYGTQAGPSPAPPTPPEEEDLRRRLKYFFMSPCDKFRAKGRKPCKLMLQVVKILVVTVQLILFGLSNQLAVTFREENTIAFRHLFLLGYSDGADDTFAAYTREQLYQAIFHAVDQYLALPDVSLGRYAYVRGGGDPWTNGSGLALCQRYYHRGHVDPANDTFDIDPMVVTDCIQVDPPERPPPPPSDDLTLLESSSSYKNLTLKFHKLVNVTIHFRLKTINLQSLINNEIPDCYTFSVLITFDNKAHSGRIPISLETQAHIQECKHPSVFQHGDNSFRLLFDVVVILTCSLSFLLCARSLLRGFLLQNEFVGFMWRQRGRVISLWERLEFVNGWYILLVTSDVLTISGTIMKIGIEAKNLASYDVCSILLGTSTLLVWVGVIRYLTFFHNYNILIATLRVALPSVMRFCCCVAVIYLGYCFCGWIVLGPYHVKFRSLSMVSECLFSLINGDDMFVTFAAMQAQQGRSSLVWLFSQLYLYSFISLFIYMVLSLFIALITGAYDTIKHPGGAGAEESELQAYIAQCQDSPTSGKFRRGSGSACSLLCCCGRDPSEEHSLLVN

SMILES | EC50 (TRPML1; [1]) | EC50 (TFEB) | EC50 (TRPML1)
CCC1(CC)CN(c2nc(C(=O)Nc3cc(F)c(O[C@@H]4C[C@@H]5C[C@@H]5C4)c(F)c3)c(CC(F)(F)F)o2)C1 [Example 183, N-(4-(cis-bicyclo[3.1.0]hexan-3-yloxy)-3,5-difluorophenyl)-2-(3,3-diethylazetidin-1-yl)-5-(2,2,2-trifluoroethyl)oxazole-4-carboxamide] | 0.01 to 1 µM | 0.01 to 1 µM | –
O=C(Nc1cc(F)c(OC2CC3C[C@@H]3C2)c(F)c1)c1nc(N2CC3COCC3C2)oc1CC(F)(F)F (stereo partly drawn) [Example 186, N-(4-(cis-bicyclo[3.1.0]hexan-3-yloxy)-3,5-difluorophenyl)-2-(tetrahydro-1H-furo[3,4-c]pyrrol-5(3H)-yl)-5-(2,2,2-trifluoroethyl)oxazole-4-carboxamide] | 0.01 to 1 µM | 0.01 to 1 µM | –
COC1(C)CN(c2nc(C(=O)Nc3cc(F)c(N4C5CCCC4CC5)c(C#N)c3)c(CC(F)(F)F)o2)C1 [Example 196, N-(4-(8-azabicyclo[3.2.1]octan-8-yl)-3-cyano-5-fluorophenyl)-2-(3-methoxy-3-methylazetidin-1-yl)-5-(2,2,2-trifluoroethyl)oxazole-4-carboxamide] | – | 0.01 to 1 µM | 0.01 to 1 µM
COC1(C)CN(c2nc(C(=O)Nc3ccc(N4C5CCCC4CC5)c(C#N)c3)c(CC(F)(F)F)o2)C1 [Example 197, N-(4-(8-azabicyclo[3.2.1]octan-8-yl)-3-cyanophenyl)-2-(3-methoxy-3-methylazetidin-1-yl)-5-(2,2,2-trifluoroethyl)oxazole-4-carboxamide] | – | 0.01 to 1 µM | 0.01 to 1 µM
CC1(C)CN(c2nc(C(=O)Nc3cc(F)c(N4C5CCCC4CC5)c(F)c3)c(CC(F)(F)F)o2)C1 [Example 200, N-(4-(8-azabicyclo[3.2.1]octan-8-yl)-3,5-difluorophenyl)-2-(3,3-dimethylazetidin-1-yl)-5-(2,2,2-trifluoroethyl)oxazole-4-carboxamide] | – | 0.01 to 1 µM | 0.01 to 1 µM
O=C(Nc1cc(F)c(N2C3CCCC2CC3)c(F)c1)c1nc(N2CC3COCC3C2)oc1CC(F)(F)F (centres unmarked) [Example 201, N-(4-(8-azabicyclo[3.2.1]octan-8-yl)-3,5-difluorophenyl)-2-(tetrahydro-1H-furo[3,4-c]pyrrol-5(3H)-yl)-5-(2,2,2-trifluoroethyl)oxazole-4-carboxamide] | – | 0.01 to 1 µM | 0.01 to 1 µM
O=C(Nc1ccc(N2CC3CC(C3)C2)c(F)c1)c1nc(N2CCC3(COC3)C2)oc1CC(F)(F)F [Example 202, N-(4-(3-azabicyclo[3.1.1]heptan-3-yl)-3-fluorophenyl)-2-(2-oxa-6-azaspiro[3.4]octan-6-yl)-5-(2,2,2-trifluoroethyl)oxazole-4-carboxamide] | – | 0.01 to 1 µM | 0.01 to 1 µM
CCC1(OC)CN(c2nc(C(=O)Nc3cc(F)c(N4CC5CC(C5)C4)c(F)c3)c(CC(F)(F)F)o2)C1 [Example 203, N-(4-(3-azabicyclo[3.1.1]heptan-3-yl)-3,5-difluorophenyl)-2-(3-ethyl-3-methoxyazetidin-1-yl)-5-(2,2,2-trifluoroethyl)oxazole-4-carboxamide] | – | 0.01 to 1 µM | 0.01 to 1 µM
CCC1(OC)CN(c2nc(C(=O)Nc3cc(F)c(N4C5CCCC4CC5)c(F)c3)c(CC(F)(F)F)o2)C1 [Example 206, N-(4-(8-azabicyclo[3.2.1]octan-8-yl)-3,5-difluorophenyl)-2-(3-ethyl-3-methoxyazetidin-1-yl)-5-(2,2,2-trifluoroethyl)oxazole-4-carboxamide] | – | 0.01 to 1 µM | 0.01 to 1 µM
COC1(C)CN(c2nc(C(=O)Nc3cc(F)c(N4C5CCCC4CC5)c(F)c3)c(CC(F)(F)F)o2)C1 [Example 207, N-(4-(8-azabicyclo[3.2.1]octan-8-yl)-3,5-difluorophenyl)-2-(3-methoxy-3-methylazetidin-1-yl)-5-(2,2,2-trifluoroethyl)oxazole-4-carboxamide] | – | 0.01 to 1 µM | 0.01 to 1 µM
CCc1oc(N2CC(CC)(OC)C2)nc1C(=O)Nc1cc(F)c(O[C@@H]2C[C@@H]3C[C@@H]3C2)c(Cl)c1 [Example 219, N-(4-(cis-bicyclo[3.1.0]hexan-3-yloxy)-3-chloro-5-fluorophenyl)-5-ethyl-2-(3-ethyl-3-methoxyazetidin-1-yl)oxazole-4-carboxamide] | 0.01 to 1 µM | 0.01 to 1 µM | –
CCc1oc(N2CC(CC)(CC)C2)nc1C(=O)Nc1cc(F)c(O[C@@H]2C[C@@H]3C[C@@H]3C2)c(Cl)c1 [Example 221, N-(4-(cis-bicyclo[3.1.0]hexan-3-yloxy)-3-chloro-5-fluorophenyl)-2-(3,3-diethylazetidin-1-yl)-5-ethyloxazole-4-carboxamide] | 0.01 to 1 µM | 0.01 to 1 µM | –

Second part, led by results:

EC50 (TRPML1; [1]) | SMILES | EC50 (TFEB) | EC50 (TRPML1)
0.01 to 1 µM | O=C(Nc1cc(F)c(OC2CC3C[C@@H]3C2)c(F)c1)c1nc(N2CCC3CCCC32)oc1CC(F)(F)F (stereo partly drawn) [Example 185, N-(4-(cis-bicyclo[3.1.0]hexan-3-yloxy)-3,5-difluorophenyl)-2-(hexahydrocyclopenta[b]pyrrol-1(2H)-yl)-5-(2,2,2-trifluoroethyl)oxazole-4-carboxamide] | 0.01 to 1 µM | –
0.01 to 1 µM | Cc1cc(NC(=O)c2nc(N3CCCC3)oc2CC(F)(F)F)cc(F)c1NC1CC2CC(C2)C1 (centres unmarked) [Example 193, N-(4-(bicyclo[3.1.1]heptan-3-ylamino)-3-fluoro-5-methylphenyl)-2-(pyrrolidin-1-yl)-5-(2,2,2-trifluoroethyl)oxazole-4-carboxamide] | 0.01 to 1 µM | –
0.01 to 1 µM | COC1(C)CN(c2nc(C(=O)Nc3cc(C)c(NC4C5CCCC4CC5)c(F)c3)c(CC(F)(F)F)o2)C1 (centres unmarked) [Example 195, N-(4-(bicyclo[3.2.1]octan-8-ylamino)-3-fluoro-5-methylphenyl)-2-(3-methoxy-3-methylazetidin-1-yl)-5-(2,2,2-trifluoroethyl)oxazole-4-carboxamide] | 0.01 to 1 µM | –
0.01 to 1 µM | CCc1oc(N2CC(C)(OC)C2)nc1C(=O)Nc1cc(F)c(O[C@@H]2C[C@@H]3C[C@@H]3C2)c(Cl)c1 [Example 223, N-(4-(cis-bicyclo[3.1.0]hexan-3-yloxy)-3-chloro-5-fluorophenyl)-5-ethyl-2-(3-methoxy-3-methylazetidin-1-yl)oxazole-4-carboxamide] | 0.01 to 1 µM | –
0.01 to 1 µM | CCc1oc(N2CC(C)(CO)C2)nc1C(=O)Nc1cc(C)c(OC2CC3CC(C3)C2)c(F)c1 (centres unmarked) [Example 224, N-(4-(bicyclo[3.1.1]heptan-3-yloxy)-3-fluoro-5-methylphenyl)-5-ethyl-2-(3-(hydroxymethyl)-3-methylazetidin-1-yl)oxazole-4-carboxamide] | 0.01 to 1 µM | –
0.01 to 1 µM | CCc1oc(N2CCCC2)nc1C(=O)Nc1cc(C)c(OC2CC3CC(C3)C2)c(F)c1 (centres unmarked) [Example 225, N-(4-(bicyclo[3.1.1]heptan-3-yloxy)-3-fluoro-5-methylphenyl)-5-ethyl-2-(pyrrolidin-1-yl)oxazole-4-carboxamide] | 0.01 to 1 µM | –
0.01 to 1 µM | CCc1oc(N2CC(CC)(OC)C2)nc1C(=O)Nc1cc(C)c(O[C@@H]2C[C@@H]3C[C@@H]3C2)c(F)c1 [Example 227, N-(4-(cis-bicyclo[3.1.0]hexan-3-yloxy)-3-fluoro-5-methylphenyl)-5-ethyl-2-(3-ethyl-3-methoxyazetidin-1-yl)oxazole-4-carboxamide] | 0.01 to 1 µM | –
